The structures appear in SMILES notation.

For one assay, the system named is diamondback moth (Plutella xylostella). As to the kind of experiment: Test Example 1: spray of test liquid on cabbage plant, control efficacy against diamondback moth larvae. Conditions: 120 h, active ingredient concentration 500 ppm, 20 ml per cup sprayed on cabbage, 10 third-instar larvae, counted after 5 days. The class given is in vivo.
One may read the pest or weed control as how far the test organism was held down. High values mean strong suppression, low ones weak suppression. `Cc1ccc(C2=NOC(c3cc(Cl)cc(Cl)c3)(C(F)(F)F)C2)cc1NC(=O)N(C)C` (centres unmarked) [present compound (57), 3-(5-(5-(3,5-dichlorophenyl)-4,5-dihydro-5-trifluoromethyl-3-isoxazolyl)-2-methylphenyl)-1,1-dimethylurea] displayed a pest or weed control at 500 ppm of at least 80%.

As for `CCc1ccc(C2=NOC(c3cc(Cl)cc(Cl)c3)(C(F)(F)F)C2)cc1NC(=O)CC(F)(F)F` (centres unmarked) [present compound (71), N-(3-(5-(3,5-dichlorophenyl)-4,5-dihydro-5-trifluoromethyl-3-isoxazolyl)-6-ethylphenyl)-3,3,3-trifluoropropionylamide], the pest or weed control at 500 ppm was at least 80%. `COC(=O)NNc1cc(C2=NOC(C)(c3ccccc3)C2)ccc1Cl` (centres unmarked) [compound number 1-2, reference compound] registered a pest or weed control at 500 ppm of 0%. Compound `CCOC(=O)Nc1cc(C2=NOC(c3cc(Cl)cc(Cl)c3)(C(F)(F)F)C2)ccc1C` (centres unmarked) [present compound (60), N-(5-(5-(3,5-dichlorophenyl)-4,5-dihydro-5-trifluoromethyl-3-isoxazolyl)-2-methylphenyl)-O-ethylcarbamate] returned a pest or weed control at 500 ppm of at least 80%. The same measure, in the same setting: to `N#Cc1ccc(C(=O)Nc2cccc(C3=NOC(c4cc(Cl)cc(Cl)c4)(C(F)(F)F)C3)c2)cc1` (centres unmarked) [present compound (5), N-(3-(5-(3,5-dichlorophenyl)-4,5-dihydro-5-trifluoromethyl-3-isoxazolyl)phenyl)-4-cyanobenzamide] belongs at least 80%; to `Cc1c(NC(=O)CC(F)(F)F)cccc1C1=NOC(c2cc(Cl)cc(Cl)c2)(C(F)(F)F)C1` (centres unmarked) [present compound (72), N-(3-(5-(3,5-dichlorophenyl)-4,5-dihydro-5-trifluoromethyl-3-isoxazolyl)-2-methylphenyl)-3,3,3-trifluoropropionylamide], at least 80%. The same measure, in the same setting: to `Cc1ccc(C2=NOC(c3cc(Cl)cc(Cl)c3)(C(F)(F)F)C2)cc1NC(=O)c1ccc(C(F)(F)F)cc1` (centres unmarked) [present compound (31), N-(5-(5-(3,5-dichlorophenyl)-4,5-dihydro-5-trifluoromethyl-3-isoxazolyl)-2-methylphenyl)-4-trifluoromethylbenzamide] belongs at least 80%; to `O=C(Nc1cccc(C2=NOC(c3cc(Cl)cc(Cl)c3)(C(F)(F)F)C2)c1)c1cccnc1Cl` (centres unmarked) [present compound (7), N-(3-(5-(3,5-dichlorophenyl)-4,5-dihydro-5-trifluoromethyl-3-isoxazolyl)phenyl)-2-chloronicotinamide], at least 80%. As to `COc1ccc(C2=NOC(c3cc(Cl)cc(Cl)c3)(C(F)(F)F)C2)cc1NC(=O)CC(F)(F)F` (centres unmarked) [present compound (78), N-(5-(5-(3,5-dichlorophenyl)-4,5-dihydro-5-trifluoromethyl-3-isoxazolyl)-2-methoxyphenyl)-3,3,3-trifluoropropionylamide], the pest or weed control at 500 ppm was at least 80%.

For `Cc1ccc(C2=NOC(c3cc(Cl)cc(Cl)c3)(C(F)(F)F)C2)cc1NC(=O)c1ccc(F)cc1` (centres unmarked) [present compound (15), N-(5-(5-(3,5-dichlorophenyl)-4,5-dihydro-5-trifluoromethyl-3-isoxazolyl)-2-methylphenyl)-4-fluorobenzamide], the pest or weed control at 500 ppm is at least 80%. On the same count and under the same terms, for `Cc1ccc(C2=NOC(c3cc(Cl)cc(Cl)c3)(C(F)(F)F)C2)cc1NC(=O)OCC(C)C` (centres unmarked) [present compound (64), N-(5-(5-(3,5-dichlorophenyl)-4,5-dihydro-5-trifluoromethyl-3-isoxazolyl)-2-methylphenyl)-O-isobutylcarbamate] the value was at least 80%; for `COc1ccc(C(=O)Nc2cc(C3=NOC(c4cc(Cl)cc(Cl)c4)(C(F)(F)F)C3)ccc2C)cc1` (centres unmarked) [present compound (30), N-(5-(5-(3,5-dichlorophenyl)-4,5-dihydro-5-trifluoromethyl-3-isoxazolyl)-2-methylphenyl)-4-methoxybenzamide], at least 80%.

In turn, `Cc1ccc(C2=NOC(c3cc(Cl)cc(Cl)c3)(C(F)(F)F)C2)cc1NC(=O)c1ccccc1F` (centres unmarked) [present compound (13), N-(5-(5-(3,5-dichlorophenyl)-4,5-dihydro-5-trifluoromethyl-3-isoxazolyl)-2-methylphenyl)-2-fluorobenzamide] displayed a pest or weed control at 500 ppm of at least 80%. Still for that read-out and setting: for `Cc1ccc(C2=NOC(c3cc(Cl)cc(Cl)c3)(C(F)(F)F)C2)cc1NC(=O)c1cccc(Cl)c1` (centres unmarked) [present compound (17), N-(5-(5-(3,5-dichlorophenyl)-4,5-dihydro-5-trifluoromethyl-3-isoxazolyl)-2-methylphenyl)-3-chlorobenzamide] the value was at least 80%; for `C/C=C/C(=O)Nc1cc(C2=NOC(c3cc(Cl)cc(Cl)c3)(C(F)(F)F)C2)ccc1C` (centres unmarked) [present compound (48), N-(5-(5-(3,5-dichlorophenyl)-4,5-dihydro-5-trifluoromethyl-3-isoxazolyl)-2-methylphenyl)crotonamide], at least 80%.

In another assay the test system is summer fruit tortrix (Adoxophyes orana). In words: Test Example 2: artificial feed irrigated with test dilution, mortality of summer fruit tortrix larvae. As to conditions: 168 h. Type of assay: in vivo. As to the method: The formulation of the present compound (79) obtained according to Formulation Example 5 was diluted with water so as to have an active ingredient concentration of 2,500 ppm. Thus, a test dilution was prepared.
The bottom of a polyethylene cup having a diameter of 5.5 cm was covered with a filter paper having the same diameter. Artificial feed (Silkmate 2S; Nihon Nosan Kogyo K.K.) sliced in a thickness of 2 mm was placed on the filter paper, and 1 mL of the above-mentioned test dilution was irrigated on the artificial feed. After air-drying of the test dilution, a filter paper having a diameter of 5.5 cm was placed on the artificial feed, and 30 first-instar larvae of summer fruit tortrix (Adoxophyes orana) were released on this filter paper, after which the cup was closed with a lid. After 7 days, larvae of summer fruit tortrix were counted and the mortality was calculated by the following equation:
Mortality (t)=(Number of dead larvae/Number of released larvae)×100
One may read the mortality as the percentage killed. For the compound `COC(=O)Nc1cc(C2=NOC(c3cc(Cl)cc(Cl)c3)(C(F)(F)F)C2)ccc1Cl` (centres unmarked) [present compound (79), N-(5-(5-(3,5-dichlorophenyl)-4,5-dihydro-5-trifluoromethyl-3-isoxazolyl)-2-chlorophenyl)-O-methylcarbamate], the mortality at 2500 ppm is at least 80%.

The same assay, now with this note: 168 h, active ingredient concentration 2,500 ppm, 1 mL on artificial feed, 30 first-instar larvae, counted after 7 days, read-out: Mortality.
For the compound `COC(=O)NNc1cc(C2=NOC(C)(c3ccccc3)C2)ccc1Cl` (centres unmarked) [compound number 1-2, reference compound], the mortality at 2500 ppm is 0%.

Values taken from patent publication US20100137372A1, “ISOXAZOLINE COMPOUNDS AND THEIR USE IN PEST CONTROL” (priority 2007, published 2010).
